The results in this text go back to PubChem BioAssay AID328 (DTP/NCI, 2004).

For the experiment, the system named is BDF1 mice, P388 leukemia ip, median survival T/C. Description: NCI In Vivo Anticancer Drug Screen. Data for tumor model P388 Leukemia (intraperitoneal) in B6D2F1 (BDF1) mice. The settings on record: endpoint: median survival time, higher = longer survival. The method in brief:
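In tumour-bearing mice, survival after compound treatment is set against the vehicle group and given as a quotient.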

[1] abbreviates: dose: 50.0 mg/kg/injection, schedule: Q01DX009 (ip), vehicle: saline with Tween-80.
[2] abbreviates: dose: 100.0 mg/kg/injection, schedule: Q01DX009 (ip), vehicle: saline with Tween-80.
[3] abbreviates: dose: 200.0 mg/kg/injection, schedule: Q01DX009 (ip), vehicle: saline with Tween-80.
The mark [4] stands for this setting: dose: 100.0 mg/kg/injection, schedule: Q01DX009 (ip), vehicle: Klucel (hydroxypropylcellulose) (HPC).
The mark [5] stands for this setting: dose: 100.0 mg/kg/injection, schedule: Q04DX003 (ip), vehicle: Klucel (hydroxypropylcellulose) (HPC).
The mark [6] stands for this setting: dose: 75.0 mg/kg/injection, schedule: Q04DX003 (ip), vehicle: saline.
[7] abbreviates: dose: 25.0 mg/kg/injection, schedule: Q04DX003 (ip), vehicle: saline.
[8] abbreviates: dose: 50.0 mg/kg/injection, schedule: Q04DX003 (ip), vehicle: saline.
The mark [9] stands for this setting: dose: 50.0 mg/kg/injection, schedule: Q04DX003 (ip), vehicle: Klucel (hydroxypropylcellulose) (HPC).

Values joined by “and” are separate entries in the source; they are usually repeats but may differ in a detail not shown here. Equal entries are not always repeated. Toxic doses and inconclusive results are not listed.

`CCCCCCCCCCCCOCCCCCCCCCCCC`: the T/C (dose: 100.0 mg/kg/injection, schedule: Q01DX009 (sc), vehicle: olive oil, sesame oil, peanut oil) is 100 % of control; the T/C (dose: 100.0 mg/kg/injection, schedule: Q04DX003 (sc), vehicle: olive oil, sesame oil, peanut oil) is 109 % of control; the T/C (dose: 200.0 mg/kg/injection, schedule: Q01DX009 (sc), vehicle: olive oil, sesame oil, peanut oil) was 100 % of control; the T/C (dose: 200.0 mg/kg/injection, schedule: Q04DX003 (sc), vehicle: olive oil, sesame oil, peanut oil) is 100 % of control; the T/C (dose: 400.0 mg/kg/injection, schedule: Q01DX009 (sc), vehicle: olive oil, sesame oil, peanut oil) was 95 % of control; the T/C (dose: 400.0 mg/kg/injection, schedule: Q04DX003 (sc), vehicle: olive oil, sesame oil, peanut oil) was 100 % of control.
Regarding `Cn1c(N)c(N=Nc2ccccc2Cl)c(=O)n(C)c1=O`, the T/C under setting [1] was 98 % of control, the T/C under setting [2] was 99 % of control and the T/C under setting [3] was 100 % of control.
With `c1ccc(/C(=N\Nc2nc3ccccc3s2)c2ccncc2)cc1`, the T/C reads like this: under setting [4], 104 % of control; under setting [5], 100 % of control; (dose: 200.0 mg/kg/injection, schedule: Q01DX009 (ip), vehicle: Klucel (hydroxypropylcellulose) (HPC)) 95 % of control; (dose: 200.0 mg/kg/injection, schedule: Q04DX003 (ip), vehicle: Klucel (hydroxypropylcellulose) (HPC)) 105 % of control; (dose: 400.0 mg/kg/injection, schedule: Q01DX009 (ip), vehicle: Klucel (hydroxypropylcellulose) (HPC)) 100 % of control; (dose: 400.0 mg/kg/injection, schedule: Q04DX003 (ip), vehicle: Klucel (hydroxypropylcellulose) (HPC)) 105 % of control.
In the case of `CCC1=C(C[C@H]2NCCc3cc(OC)c(OC)cc32)C[C@H]2c3cc(OC)c(OC)cc3CCN2C1`, the T/C was 110 % of control (dose: 4.0 mg/kg/injection, schedule: Q04DX003 (ip), vehicle: saline); 113 % of control (dose: 6.7 mg/kg/injection, schedule: Q04DX003 (ip), vehicle: saline with Tween-80); 159 % of control (dose: 15.0 mg/kg/injection, schedule: Q04DX003 (ip), vehicle: saline with Tween-80); 158 % of control (dose: 16.0 mg/kg/injection, schedule: Q04DX003 (ip), vehicle: saline); 165 % of control (dose: 22.0 mg/kg/injection, schedule: Q04DX003 (ip), vehicle: Klucel (hydroxypropylcellulose) (HPC)); 174 % of control (dose: 32.0 mg/kg/injection, schedule: Q04DX003 (ip), vehicle: saline). For the same compound, the T/C runs as follows: (dose: 33.0 mg/kg/injection, schedule: Q04DX003 (ip), vehicle: Klucel (hydroxypropylcellulose) (HPC)) 165 % of control; (dose: 33.0 mg/kg/injection, schedule: Q04DX003 (ip), vehicle: saline with Tween-80) 177 % of control; (dose: 33.0 mg/kg/injection, schedule: Q04DX003 (ip), vehicle: saline) 154 % of control; (dose: 50.0 mg/kg/injection, schedule: Q04DX003 (ip), vehicle: saline with Tween-80) 195 % of control; under setting [6], 90 % of control.
In the case of `CC(N)COCc1ccccc1` (configuration not stated), the T/C was 104 % of control under setting [7] and 95 % of control under setting [8].
Take `CCOC(=O)N1c2ccccc2C=CC1/C(N)=N/O` (configuration not stated): the T/C was 109 % of control (dose: 25.0 mg/kg/injection, schedule: Q01DX009 (ip), vehicle: Klucel (hydroxypropylcellulose) (HPC)); 95 % of control (dose: 50.0 mg/kg/injection, schedule: Q01DX009 (ip), vehicle: Klucel (hydroxypropylcellulose) (HPC)); 95 % of control under setting [9]; 104 % of control under setting [4]; 95 % of control under setting [5].
As to `CSc1ncnc2nc[nH]c12`, the T/C is 100 % of control (dose: 25.0 mg/kg/injection, schedule: Q01DX010 (ip), vehicle: saline); 100 % of control (dose: 50.0 mg/kg/injection, schedule: Q01DX010 (ip), vehicle: saline); 95 % of control and 100 % of control (dose: 100.0 mg/kg/injection, schedule: Q01DX010 (ip), vehicle: saline); 104 % of control and 105 % of control (dose: 200.0 mg/kg/injection, schedule: Q01DX010 (ip), vehicle: saline).
Take `COC(=S)Nc1ccc2c(c1)nc(-c1ccccc1)c1cc(NC(=S)OC)ccc12`: the T/C by setting is: (dose: 100.0 mg/kg/injection, schedule: Q04DX002 (ip), vehicle: saline with Tween-80) 101 % of control; (dose: 200.0 mg/kg/injection, schedule: Q04DX002 (ip), vehicle: saline with Tween-80) 101 % of control; (dose: 400.0 mg/kg/injection, schedule: Q04DX002 (ip), vehicle: saline with Tween-80) 90 % of control.
For the compound `Nc1nc2c(c(=O)[nH]1)N(CCS(=O)(=O)F)C(CNc1ccc(C(=O)NC(CCC(=O)O)C(=O)O)cc1)CN2` (configuration not stated), the T/C by setting is: (dose: 50.0 mg/kg/injection, schedule: Q04DX003 (ip), vehicle: sodium bicarbonate) 105 % of control; (dose: 100.0 mg/kg/injection, schedule: Q04DX003 (ip), vehicle: sodium bicarbonate) 99 % of control; (dose: 200.0 mg/kg/injection, schedule: Q04DX003 (ip), vehicle: sodium bicarbonate) 99 % of control.
`CC1(C)N=C(N)N=C(N)N1c1ccc(CNC(=O)Nc2cccc(S(=O)(=O)F)c2)cc1`: the T/C was 104 % of control (dose: 35.0 mg/kg/injection, schedule: Q04DX003 (ip), vehicle: saline); 150 % of control under setting [8]; 163 % of control under setting [6]; 200 % of control (dose: 99.0 mg/kg/injection, schedule: Q04DX003 (ip), vehicle: saline); 159 % of control and 195 % of control and 215 % of control (dose: 150.0 mg/kg/injection, schedule: Q04DX003 (ip), vehicle: saline); 225 % of control and 163 % of control (dose: 225.0 mg/kg/injection, schedule: Q04DX003 (ip), vehicle: saline). For the same compound, the T/C (dose: 300.0 mg/kg/injection, schedule: Q04DX003 (ip), vehicle: saline) is 177 % of control.
Take `O=C1c2ccccc2CCCC1N1CCOCC1` (configuration not stated): the T/C (dose: 100.0 mg/kg/injection, schedule: Q04DX003 (ip), vehicle: saline with Tween-80) is 100 % of control; the T/C (dose: 200.0 mg/kg/injection, schedule: Q04DX003 (ip), vehicle: saline with Tween-80) is 90 % of control; the T/C (dose: 400.0 mg/kg/injection, schedule: Q04DX003 (ip), vehicle: saline with Tween-80) was 90 % of control.
Consider `O=C1C(Br)=CC(=C2C=C(Br)C(=O)C(Br)=C2)C=C1Br`, for which the T/C under setting [9] is 113 % of control and the T/C under setting [5] is 122 % of control.
For `Nc1ccc(O)cc1`, the T/C is 109 % of control (dose: 264.0 mg/kg/injection, schedule: Q01DX009 (ip), vehicle: saline sonified) and 90 % of control (dose: 400.0 mg/kg/injection, schedule: Q01DX009 (ip), vehicle: saline sonified).
In the case of `O=[N+]([O-])c1ccc(N2CCCCC2)c([N+](=O)[O-])c1`, the T/C is 110 % of control (dose: 12.5 mg/kg/injection, schedule: Q01DX009 (ip), vehicle: saline); 109 % of control (dose: 25.0 mg/kg/injection, schedule: Q01DX009 (ip), vehicle: saline); 121 % of control under setting [7]; 116 % of control (dose: 50.0 mg/kg/injection, schedule: Q01DX009 (ip), vehicle: saline); 114 % of control under setting [8]; 100 % of control (dose: 100.0 mg/kg/injection, schedule: Q01DX009 (ip), vehicle: saline). Besides, the T/C (dose: 100.0 mg/kg/injection, schedule: Q04DX003 (ip), vehicle: saline) was 112 % of control; the T/C (dose: 200.0 mg/kg/injection, schedule: Q01DX009 (ip), vehicle: saline) is 110 % of control; the T/C (dose: 200.0 mg/kg/injection, schedule: Q04DX003 (ip), vehicle: saline) was 123 % of control; the T/C (dose: 400.0 mg/kg/injection, schedule: Q01DX009 (ip), vehicle: saline) is 110 % of control; the T/C (dose: 400.0 mg/kg/injection, schedule: Q04DX003 (ip), vehicle: saline) is 102 % of control.
As for `CC(C#N)(C#N)N=Nc1ccc(Cl)cc1Cl`, the T/C under setting [2] was 116 % of control.
Regarding `CCOC(=O)c1c(C)cc(C)nc1[S][Sn]([Cl])([Cl])[S]c1nc(C)cc(C)c1C(=O)OCC`, the T/C under setting [1] was 99 % of control, the T/C under setting [2] is 107 % of control and the T/C under setting [3] was 106 % of control.
